Reference: patent publication US9260700B2 (priority 2011, dated 2016)

Experiments:
[1] = system: Myrothecium verrucaria bilirubin oxidase (BOD), produced in Pichia pastoris; settings: pH 6.5, with respect to ABTS; cited from earlier work
[2] = biological target: Magnaporthe oryzae bilirubin oxidase (BOD), produced in Pichia pastoris, SEQ. ID. No.3 (SEQ. ID. No.1 with additional N-terminal serine) (Pyricularia oryzae, UniProt G4MQU0); format: biochemical; settings: 37° C., citrate-phosphate buffer 50 mM pH 3.6, bilirubin 0 to 100 μM

Compound	Km [1] [µM]	Km [2] [µM]	kcat [2] [s⁻¹]
CCn1c(=NN=c2sc3cc(S(=O)(=O)O)ccc3n2CC)sc2cc(S(=O)(=O)O)ccc21 [ABTS, 2,2′-azino-bis(3-ethylbenzothiazoline-6-sulphonic acid)]	340		
conjugated bilirubin		18.5	28
